Tested on: MkC1qDC
Assay: hemagglutination inhibition, fixed human group […] erythrocytes, two-fold dilutions
Format: cell-based, Modiolus kurilensis
Conditions: Ca2+-dependent lectin activity, 0.1 mg/mL protein, titer decline by one two-fold dilution, also given as 1.16 mg/mL

## OC[C@H]1OC(O)C[C@@H](O)[C@H]1O (stereo partly drawn) [2-deoxy-D-galactose]
Also printed as 2.46 mg/mL
  IC50: 15 mM

## OC[C@H]1O[C@H](O[C@@H]2C(O)O[C@H](CO)[C@@H](O)[C@@H]2O)[C@@H](O)[C@@H](O)[C@@H]1O (stereo partly drawn) [2α- mannobiose]
Also printed as 10.26 mg/mL
  IC50: 30 mM

## OC[C@H]1OC(O)[C@H](O)[C@@H](O)[C@H]1O (stereo partly drawn) [D-galactose]
Also printed as 5.40 mg/mL
  IC50: 30 mM

## O=C(O)[C@H]1OC(O)[C@H](O)[C@@H](O)[C@H]1O (stereo partly drawn) [D-galacturonic acid]
Also printed as 1.46 mg/mL
  IC50: 7.5 mM

## O=C(O)[C@H]1OC(O)[C@H](O)[C@@H](O)[C@@H]1O (stereo partly drawn) [D-glucuronic acid]
Also printed as 1.46 mg/mL
  IC50: 7.5 mM

## OC[C@H]1O[C@@H](O[C@H]2[C@H](O)[C@@H](O)C(O)O[C@@H]2CO)[C@H](O)[C@@H](O)[C@H]1O (stereo partly drawn) [D-lactose]
Also printed as 5.13 mg/mL
  IC50: 15 mM

## OC[C@@H]1OC(O)[C@@H](O)[C@@H](O)[C@@H]1O (stereo partly drawn) [L-gulose]
Also printed as 1.35 mg/mL
  IC50: 7.5 mM

## CC(=O)N[C@H]1[C@H]([C@H](O)[C@H](O)CO)OC(O)(C(=O)O)C[C@@H]1O (some centres unmarked) [N-acetylneuraminic (sialic) acid]
  IC50: 3.75 mM

Source: PMC8706970, “A Novel C1q Domain-Containing Protein Isolated from the Mollusk Modiolus kurilensis Recognizing Glycans Enriched with Acidic Galactans and Mannans” (Marine Drugs, 2021)
